# From patent US8283357B2, “Cycloalkylcarbamate benzamide aniline HDAC inhibitor compounds” (Gilead Sciences, Inc., priority 2009, dated 2012)
# Legend:
# HDAC-1 = HDAC-1 (Homo sapiens, UniProt Q13547); test: HDAC-1 inhibitory activity assay (fluorophore/quencher peptide substrate); assay type: biochemical; settings: enzyme/compound pre-incubated 2 hours at room temperature; reaction about 45 minutes
# Procedure: (§1) HDAC inhibitory activity of the compound of Example 1 was measured by an assay in which HDAC-1 or -3 were used as a target molecule. The test compound was suspended in and titrated in DMSO. It was then spotted into a 384-well test plate. The enzyme, HDAC-1 or -3, was diluted in assay buffer containing 25 mM Tris-HCl (pH 8.0), 137 mM NaCl, 2.7 mM KCl, and 0.01% Tween-20 and added to the pre-spotted compound. The enzyme/compound mix was incubated at room temperature for 2 hours. The peptide substrate containing a fluorophore/quencher pair was diluted in the same assay buffer and added to the compound/enzyme mix initiating the reaction. The reaction incubated at room temperature for about 45 minutes. A concentrated developer solution was diluted in the assay buffer, and added to the reaction. The reaction was incubated at room temperature for about 15 minutes and relative fluorescence was read on an instrument reader.
# HDAC-3 = HDAC-3 (Homo sapiens, UniProt O15379); test: HDAC-3 inhibitory activity assay (fluorophore/quencher peptide substrate); assay type: biochemical; settings: enzyme/compound pre-incubated 2 hours at room temperature; reaction about 45 minutes
# Procedure: as §1
# HDAC-1, sequence (Q13547 whole entry, species assumed): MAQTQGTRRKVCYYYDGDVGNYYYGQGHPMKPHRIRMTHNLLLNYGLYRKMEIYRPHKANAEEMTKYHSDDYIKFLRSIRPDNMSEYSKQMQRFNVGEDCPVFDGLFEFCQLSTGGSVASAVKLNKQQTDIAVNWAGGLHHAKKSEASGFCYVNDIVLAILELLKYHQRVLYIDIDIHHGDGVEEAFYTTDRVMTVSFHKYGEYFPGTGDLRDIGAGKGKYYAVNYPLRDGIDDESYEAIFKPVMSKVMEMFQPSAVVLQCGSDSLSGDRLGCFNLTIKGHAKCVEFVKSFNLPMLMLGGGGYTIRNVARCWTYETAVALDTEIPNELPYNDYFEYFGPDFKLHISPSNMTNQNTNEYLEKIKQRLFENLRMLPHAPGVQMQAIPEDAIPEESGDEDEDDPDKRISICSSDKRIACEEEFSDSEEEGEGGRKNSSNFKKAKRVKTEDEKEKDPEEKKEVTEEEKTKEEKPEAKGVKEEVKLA
# HDAC-3, sequence (O15379 whole entry, species assumed): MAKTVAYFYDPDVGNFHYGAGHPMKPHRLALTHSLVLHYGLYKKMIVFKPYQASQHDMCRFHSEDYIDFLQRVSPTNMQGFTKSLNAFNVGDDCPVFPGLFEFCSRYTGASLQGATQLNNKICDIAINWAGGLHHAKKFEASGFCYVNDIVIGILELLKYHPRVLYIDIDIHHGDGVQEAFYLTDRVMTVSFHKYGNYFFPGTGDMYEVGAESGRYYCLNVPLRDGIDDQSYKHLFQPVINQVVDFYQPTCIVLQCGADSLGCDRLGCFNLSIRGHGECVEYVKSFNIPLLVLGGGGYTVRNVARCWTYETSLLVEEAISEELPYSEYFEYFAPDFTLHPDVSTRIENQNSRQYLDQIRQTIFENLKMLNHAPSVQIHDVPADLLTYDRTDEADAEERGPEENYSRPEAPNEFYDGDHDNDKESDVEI
# HDAC-3, sequence (Q9Y618 395-489 partner limits assumed, species assumed): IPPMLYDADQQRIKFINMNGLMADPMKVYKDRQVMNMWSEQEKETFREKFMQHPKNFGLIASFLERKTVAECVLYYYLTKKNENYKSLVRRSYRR
Compound,IC50 (HDAC-1) [µM],IC50 (HDAC-3) [µM]
"CC(C)(C)OC(=O)NC1(C(=O)Nc2ccc(C(=O)Nc3ccccc3N)cc2)CCCC1 [Example 3, tert-Butyl-1((4-((2-aminophenyl)carbamoyl)phenyl)carbamoyl)cyclopentylcarbamate]",0.0609,0.482
"CC(C)(C)OC(=O)NC1(C(=O)Nc2ccc(C(=O)Nc3ccccc3N)cc2)CC1 [Example 2, tert-Butyl-1-((4-((2-aminophenyl)carbamoyl)phenyl)carbamoyl)cyclopropyl carbamate]",0.0628,0.378
"CC(C)(C)NC(=O)NC1(C(=O)Nc2ccc(C(=O)Nc3cc(-c4ccc(F)cc4)ccc3N)cc2)CC1 [Example 11, N-(4-amino-4′-fluorobiphenyl-3-yl)-4-(1-(3-tert-butylureido)cyclopropanecarboxamido)benzamide]",0.009,> 10
"Nc1ccc(-c2cccs2)cc1NC(=O)c1ccc(NC(=O)C2(NC(=O)OCc3ccccc3)CC2)c(F)c1 [Example 8, Benzyl-1-((4-((2-amino-5-(thiophen-2-yl)phenyl)carbamoyl)-2-fluorophenyl)carbamoyl)cyclopropylcarbamate]",0.0056,> 10
"CN(C(=O)C1(NC(=O)OCc2ccccc2)CC1)c1ccc(C(=O)Nc2cc(-c3ccc(F)cc3)ccc2N)cc1 [Example 9, Benzyl-1-((4-((2-amino-5-(4-Fluorophenyl)phenyl)carbamoyl)phenyl)(methyl)carbamoyl)cyclopropylcarbamate]",0.0082,7.51
"Nc1ccc(-c2ccc(F)cc2)cc1NC(=O)c1ccc(NC(=O)C2(N)CC2)cc1 [Example 10, N-(4-Amino-4′-fluorobiphenyl-3-yl)-4-(1-aminocyclopropanecarboxamido)benzamide]",0.0052,> 10
"Nc1ccc(-c2cccs2)cc1NC(=O)c1ccc(NC(=O)C2(NC(=O)OCc3ccccc3)CC2)cc1 [Example 5, Benzyl-1-((4-((2-amino-5-(thiophen-2-yl)phenyl)carbamoyl)phenyl)carbamoyl)cyclopropyl carbamate]",0.0034,> 10
"Nc1ccccc1NC(=O)c1ccc(NC(=O)C2(NC(=O)OCc3ccccc3)CC2)cc1 [Example 4, Benzyl-1-((4-((2-aminophenyl)carbamoyl)phenyl)carbamoyl)cyclopropyl carbamate]",0.025,0.171
"CC(C)(C)OC(=O)NC1(C(=O)Nc2ccc(C(=O)Nc3ccccc3N)cc2)CCCCC1 [Example 1, tert-Butyl-1-((4-((2-aminophenyl)carbamoyl)phenyl)carbamoyl)cyclohexyl carbamate]",0.0447,0.378
"Nc1ccc(-c2ccc(Cl)s2)cc1NC(=O)c1ccc(NC(=O)C2(NC(=O)OCc3ccccc3)CC2)cc1 [Example 7, Benzyl-1-((4-((2-amino-5-(5-chlorothiophen-2-yl)phenyl)carbamoyl)phenyl)carbamoyl)cyclopropylcarbamate]",0.0267,> 10
"Nc1ccc(-c2ccc(F)cc2)cc1NC(=O)c1ccc(NC(=O)C2(NC(=O)OCc3ccccc3)CC2)cc1 [Example 6, Benzyl-1-((4-((2-amino-5-(4-fluorophenyl)phenyl)carbamoyl)phenyl)carbamoyl)cyclopropyl carbamate]",0.0074,> 10
